# According to patent US20120003270A1, “6-SUBSTITUTED ISOFLAVONOID COMPOUNDS AND USES THEREOF” (priority 2008, published 2012):
# What was measured:
# [1] = test system: low density lipoprotein (LDL); test: Cu2+-induced oxidation of LDL (FOX assay); type: biochemical; set-up: lipid peroxide formation: unit not given here
# Procedure: Blood was collected by venipuncture and plasma separated by centrifugation. LDL was then isolated from plasma using a 4-step sodium chloride density gradient and ultracentrifuged at 200,000 g for 20 hours at 4° C. The collect LDL was purified by passage through gel filtration PD10 column to remove excess salt and EDTA, and stored in the dark at 4° C. to prevent auto-oxidation and used with two weeks of isolation. The LDL cholesterol content was measure using a standard enzymatic method and protein concentration determined by the Lowry method using BSA as the standard.
# On the day of each experiment a 2 mL aliquot of LDL was passed through a second PD10 column and diluted with chelex treated PBS (100 mM) to give a standard protein concentration of 0.1 mg/mL, ie final concentration per reaction. Oxidation reactions were initiated by the addition of freshly prepared Cu^2+ solution, such that the final concentration of CuSO4 was 5 μM. […] The extent of lipoprotein oxidation was determined by measuring the formation of lipid-peroxides on aliquots removed every 30-minute over a 3-hour period. Peroxides were determined at each time point by the ferrous oxidation-xylenol orange (FOX) assay using standard hydrogen peroxide curve (5 to 200 μM). Compound (1) was examined in at least two separate experiments performed on separate days.
# PGE2 = PGE2 synthesis in RAW 264.7 (ELISA); type: cell-based, mouse; conditions: LPS 50 ng/ml, 16 hrs
# Procedure: The mouse macrophage cell line RAW 264.7 was cultured in DMEM supplemented with foetal calf serum (FCS), 2 mM glutamine and 50 U/ml penicillin/streptomycin. Cells were treated with either test compounds (in 0.025% DMSO) or vehicle alone, and added one hour before 50 ng/ml LPS. After incubation for 16 hrs, culture media was collected for PGE2 or TXB2 measurement by ELISA (Cayman Chemical), and TNFα measurement using an ELISA (Becton Dickinson).
# [2] = Free radical scavenging (DPPH); type: biochemical; conditions: DPPH 0.1 mM, 20 minutes, 517 nm; read-out: Free radical scavenging ability EC50
# Procedure: The antioxidant (free radical trapping) activity of test compounds was assessed using the stable free radical compound 2,2-diphenyl-1-picrylhydrazyl (DPPH). A stock solution of DPPH was prepared at a concentration of 0.1 mM in ethanol and mixed for 10 minutes prior to use. Compound (1) was reacted with DPPH for 20 minutes, after which time the absorbance at 517 nm was determined. The change in absorbance at 517 nm was compared to a reagent blank (DPPH with ethanol alone). The IC50 value was estimated as the concentration of the test compound that caused a 0.6 change in absorbance (with 1.2 absorbance units representing total scavenging of the DPPH radical).
# [3] = Pharmacokinetics after a single oral dose in mice; type: in vivo, mouse; conditions: serum
# Procedure: The pharmacokinetic (PK) profiles of compounds (1) and (3) were examined following oral administration in PEG 400/PBS 1:1 at a dose of 25 mg/kg. For each experiment, three animals were allocated per time point (15 min, 30 min, 60 min, 90 min, 4 hr and 24 hr). Mice were killed using cervical dislocation and serum collected via cardiac puncture. Faeces and urine, where available, were also collected. Samples were stored at −80° C. and analysed by LC-MS in-house. The limit of detection was 20 ng/ml.
# In Table 23 (and Table 24), “AUC” represents the area under the serum concentration versus time curve, expressed as μM*hour/L. This number assesses absorption and clearance in a relative way. The higher the number, the more compound has been absorbed and the longer it has remained in circulation. “AUCfree” refers to the area under the curve for unconjugated or free analogue, whereas “AUCtotal” refers to the area under the curve for the free and conjugated analogue combined.
# “[max]” refers to the maximum concentration observed in serum. These measurements also give some understanding of how well a compound is absorbed.
# The ratio of the AUCfree to the AUCtotal gives a relative measure of how much of the administered compound i.e. ‘free’ remains either in circulation compared to how much of the compound is conjugated.
# “t1/2” is the half life, i.e. the time taken for the serum concentration to fall by half. The elimination of a drug is usually an exponential (logarithmic) process, so that a constant proportion is eliminated per unit time. […] The first refers to the t1/2 of the unconjugated analogue and the second the t1/2 of the total (free plus conjugated) analogue.
# [4] = test system: neonatal fibroblast foreskin (NFF); test: Toxicity in normal cells (MTT), NFF; type: cell-based; conditions: Homo sapiens, 120 h, 5 days, top concentration 150 μM, read-out: Normal cell viability IC50
# Procedure: Human neonatal fibroblast foreskin (NFF—a gift from Dr. Peter Parsons, Queensland Institute of Medical Research) or rabbit kidney (RK-13—a gift from Prof. Miller Whalley, Macquarie University) cells were seeded into 96 well plates and cultured in RPMI supplemented with 10% FCS (CSL, Australia), penicillin (100 U/ml), streptomycin ([…]), L-glutamine (2 mM) and sodium bicarbonate (1.2 g/L) at 37° C. and 5% CO2 for 24 hours until cells had attached and entered log phase of growth. Test compounds were added in serial two-fold dilutions from 150 μM in triplicate and incubated for a further 5 days. MTT was then added to each well, incubated for 3 hours at 37° C., after which the medium was tipped off. Following the addition of DMSO, the absorbance for each well was read on a plate reader. The assays were repeated at least twice.
compound,measurement,setting,value
CN(C)Cc1cc2c(cc1O)OCC(c1ccc(O)cc1)=C2 [Compound (1)],lipid peroxide formation,"[1]; Compound (1) 100 μM + Cu++ 5 μM, no LDL, 0 min",10.13 ± 2.82
same,lipid peroxide formation,"[1]; Compound (1) 100 μM + Cu++ 5 μM, no LDL, 30 min",32.09 ± 11.15
same,lipid peroxide formation,"[1]; Compound (1) 100 μM + Cu++ 5 μM, no LDL, 60 min",46.21 ± 20.68
same,lipid peroxide formation,"[1]; Compound (1) 100 μM + Cu++ 5 μM, no LDL, 90 min",58.19 ± 28.98
same,lipid peroxide formation,"[1]; Compound (1) 100 μM + Cu++ 5 μM, no LDL, 120 min",69.46 ± 35.33
same,lipid peroxide formation,"[1]; Compound (1) 100 μM + Cu++ 5 μM, no LDL, 180 min",76.60 ± 40.17
same,IC50,"[1]; LDL 0.1 mg/mL, CuSO4 5 μM, read-out: IC50, concentration at which 50% of the LDL oxidation was inhibited",0.58 µM
same,lipid peroxide formation,"[1]; LDL 0.1 mg/ml + compound (1) 0.1 μM + Cu++ 5 μM, 0 min",11.54 ± 1.96
same,lipid peroxide formation,"[1]; LDL 0.1 mg/ml + compound (1) 0.1 μM + Cu++ 5 μM, 30 min",14.50 ± 0.28
same,lipid peroxide formation,"[1]; LDL 0.1 mg/ml + compound (1) 0.1 μM + Cu++ 5 μM, 60 min",26.86 ± 0.65
same,lipid peroxide formation,"[1]; LDL 0.1 mg/ml + compound (1) 0.1 μM + Cu++ 5 μM, 90 min",89.43 ± 17.03
same,lipid peroxide formation,"[1]; LDL 0.1 mg/ml + compound (1) 0.1 μM + Cu++ 5 μM, 120 min",161.78 ± 1.44
same,lipid peroxide formation,"[1]; LDL 0.1 mg/ml + compound (1) 0.1 μM + Cu++ 5 μM, 180 min",193.20 ± 25.05
same,lipid peroxide formation,"[1]; LDL 0.1 mg/ml + compound (1) 1.0 μM + Cu++ 5 μM, 0 min",11.31 ± 1.95
same,lipid peroxide formation,"[1]; LDL 0.1 mg/ml + compound (1) 1.0 μM + Cu++ 5 μM, 30 min",12.83 ± 2.28
same,lipid peroxide formation,"[1]; LDL 0.1 mg/ml + compound (1) 1.0 μM + Cu++ 5 μM, 60 min",13.11 ± 2.70
same,lipid peroxide formation,"[1]; LDL 0.1 mg/ml + compound (1) 1.0 μM + Cu++ 5 μM, 90 min",14.78 ± 1.06
same,lipid peroxide formation,"[1]; LDL 0.1 mg/ml + compound (1) 1.0 μM + Cu++ 5 μM, 120 min",20.39 ± 2.95
same,lipid peroxide formation,"[1]; LDL 0.1 mg/ml + compound (1) 1.0 μM + Cu++ 5 μM, 180 min",102.30 ± 37.30
same,lipid peroxide formation,"[1]; LDL 0.1 mg/ml + compound (1) 10 μM + Cu++ 5 μM, 0 min",11.54 ± 1.96
same,lipid peroxide formation,"[1]; LDL 0.1 mg/ml + compound (1) 10 μM + Cu++ 5 μM, 30 min",16.77 ± 2.55
same,lipid peroxide formation,"[1]; LDL 0.1 mg/ml + compound (1) 10 μM + Cu++ 5 μM, 60 min",19.56 ± 4.55
same,lipid peroxide formation,"[1]; LDL 0.1 mg/ml + compound (1) 10 μM + Cu++ 5 μM, 90 min",20.84 ± 5.30
same,lipid peroxide formation,"[1]; LDL 0.1 mg/ml + compound (1) 10 μM + Cu++ 5 μM, 120 min",22.80 ± 3.39
same,lipid peroxide formation,"[1]; LDL 0.1 mg/ml + compound (1) 10 μM + Cu++ 5 μM, 180 min",20.30 ± 4.97
same,lipid peroxide formation,"[1]; LDL 0.1 mg/ml + compound (1) 100 μM + Cu++ 5 μM, 0 min",13.83 ± 1.77
same,lipid peroxide formation,"[1]; LDL 0.1 mg/ml + compound (1) 100 μM + Cu++ 5 μM, 30 min",29.71 ± 6.85
same,lipid peroxide formation,"[1]; LDL 0.1 mg/ml + compound (1) 100 μM + Cu++ 5 μM, 60 min",39.57 ± 10.67
same,lipid peroxide formation,"[1]; LDL 0.1 mg/ml + compound (1) 100 μM + Cu++ 5 μM, 90 min",78.85 ± 33.54
same,lipid peroxide formation,"[1]; LDL 0.1 mg/ml + compound (1) 100 μM + Cu++ 5 μM, 120 min",54.24 ± 9.58
same,lipid peroxide formation,"[1]; LDL 0.1 mg/ml + compound (1) 100 μM + Cu++ 5 μM, 180 min",62.50 ± 19.58
same,PGE2,PGE2; 1 μM,2601.37 ± 153.53 pg/mL
same,PGE2,PGE2; 10 μM,847.96 ± 144.83 pg/mL
same,EC50,[2],18.8 µM
same,half-life,"[3]; mouse, oral, 25 mg/kg, unconjugated, one phase exponential decay, read-out: t1/2 (free)",9 min
same,AUC,"[3]; mouse, oral 25 mg/kg in PEG 400/PBS 1:1",0.127 µM·h
same,AUCfree/AUCtotal,[3]; oral 25 mg/kg,33%
same,"[max]free (μM, mean ± SD)",[3]; oral 25 mg/kg,0.13 ± 0.1 µM
same,IC50,[4],64.1 ± 9.6 µM
